Reference: ChEMBL document CHEMBL4840351 (J Med Chem, 2021)

Legend:
[1] = molecular target: Cytochrome P450 3A4 (Homo sapiens, UniProt P08684); experiment: Inhibition of CYP3A4M in human liver microsomes using midazolam as substrate incubated for 10 mins in presence of NADPH by LC-MS/MS analysis; format: ADME
[2] = molecular target: Cytochrome P450 2D6 (Homo sapiens, UniProt P10635); experiment: Inhibition of CYP2D6 in human liver microsomes using bufuralol as substrate incubated for 10 mins in presence of NADPH by LC-MS/MS analysis; format: ADME
[3] = molecular target: Cytochrome P450 2C19 (Homo sapiens, UniProt P33261); experiment: Inhibition of CYP2C19 in human liver microsomes using S-mephenytoin as substrate incubated for 10 mins in presence of NADPH by LC-MS/MS analysis; format: ADME
[4] = Cmax in ICR mouse at 15 mg/kg, po after 24 hrs; format: ADME, organism-based; parameters: route oral, time 24 hrs, dose 15 mg/kg; conditions: in vivo
[5] = Receptor occupancy at BTK in PBMC of ICR mouse at 15 mg/kg, po after 24 hrs by ELISA; format: functional
[6] = Receptor occupancy at BTK in spleen of ICR mouse at 15 mg/kg, po after 24 hrs by ELISA; format: functional
[7] = Receptor occupancy at BTK in PBMC of ICR mouse at 15 mg/kg, po after 1 hr by ELISA; format: functional
[8] = Receptor occupancy at BTK in spleen of ICR mouse at 15 mg/kg, po after 1 hr by ELISA; format: functional
[9] = Toxicity in SFP CD-1 mouse assessed as mortality at 10 to 1280 mg/kg, po administered for 7 days; format: organism-based; conditions: in vivo, 168 h, dose 10-1280 mg/kg, time 7 day
[10] = Oral bioavailability in Sprague-Dawley rat at 5 mg/kg measured upto 24 hrs by LC/MS/MS analysis; format: ADME, organism-based; conditions: in vivo
[11] = AUC in Sprague-Dawley rat at 5 mg/kg, po measured upto 24 hrs by LC/MS/MS analysis; format: ADME, organism-based; parameters: route oral, dose 5 mg/kg, time <=24; conditions: in vivo
[12] = AUC in Sprague-Dawley rat at 5 mg/kg, iv measured upto 24 hrs by LC/MS/MS analysis; format: ADME, organism-based; parameters: route intravenous, dose 5 mg/kg, time <=24; conditions: in vivo
[13] = molecular target: T1, Tyrosine-protein kinase ITK/TSK (Homo sapiens, UniProt Q08881); experiment: Inhibition of full-length N-terminal GST-tagged ITK (2 to 620 residues) (unknown origin) expressed in Sf21 insect cells using NH2-ETVYSEVRK-biotin as substrate preincubated for 1 hr followed by ATP addition and measured after 2 hrs by ELISA
T1 sequence (Q08881 whole entry): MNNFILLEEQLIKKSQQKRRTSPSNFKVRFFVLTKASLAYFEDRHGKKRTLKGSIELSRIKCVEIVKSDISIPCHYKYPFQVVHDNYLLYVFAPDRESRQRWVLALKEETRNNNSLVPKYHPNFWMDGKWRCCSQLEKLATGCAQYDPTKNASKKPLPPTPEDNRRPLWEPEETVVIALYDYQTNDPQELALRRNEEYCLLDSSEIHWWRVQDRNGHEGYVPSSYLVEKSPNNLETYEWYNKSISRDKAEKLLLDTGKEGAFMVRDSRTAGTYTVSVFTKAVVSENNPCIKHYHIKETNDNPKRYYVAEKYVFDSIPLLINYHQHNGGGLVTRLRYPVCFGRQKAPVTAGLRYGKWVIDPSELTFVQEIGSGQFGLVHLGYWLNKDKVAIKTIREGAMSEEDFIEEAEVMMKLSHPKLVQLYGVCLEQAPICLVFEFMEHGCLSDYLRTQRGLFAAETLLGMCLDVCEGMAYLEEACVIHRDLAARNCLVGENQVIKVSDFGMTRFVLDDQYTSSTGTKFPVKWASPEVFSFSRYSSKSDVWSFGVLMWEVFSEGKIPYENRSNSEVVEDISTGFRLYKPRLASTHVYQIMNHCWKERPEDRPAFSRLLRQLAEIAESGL

[14] = molecular target: T2, Tyrosine-protein kinase Blk (Homo sapiens, UniProt P51451); experiment: Inhibition of BLK (unknown origin) at 1 uM relative to control
Target sequence in this assay (P51451 2-505 limits assumed): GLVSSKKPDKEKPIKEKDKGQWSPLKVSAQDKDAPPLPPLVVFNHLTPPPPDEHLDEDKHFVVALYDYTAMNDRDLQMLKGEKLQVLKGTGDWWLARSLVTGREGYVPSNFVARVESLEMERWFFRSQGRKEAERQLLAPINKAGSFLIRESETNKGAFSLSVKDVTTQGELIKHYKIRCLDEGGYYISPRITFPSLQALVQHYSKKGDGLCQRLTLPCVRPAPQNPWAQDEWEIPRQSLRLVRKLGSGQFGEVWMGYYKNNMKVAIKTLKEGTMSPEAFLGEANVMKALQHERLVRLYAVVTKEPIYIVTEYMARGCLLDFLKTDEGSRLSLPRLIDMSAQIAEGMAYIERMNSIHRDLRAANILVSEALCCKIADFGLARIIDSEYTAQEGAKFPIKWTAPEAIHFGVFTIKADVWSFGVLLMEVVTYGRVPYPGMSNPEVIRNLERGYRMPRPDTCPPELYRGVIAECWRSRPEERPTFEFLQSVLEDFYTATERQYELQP

[15] = molecular target: T2, Tyrosine-protein kinase Blk; experiment: Inhibition of BLK (unknown origin)
Target sequence in this assay (P51451 whole entry): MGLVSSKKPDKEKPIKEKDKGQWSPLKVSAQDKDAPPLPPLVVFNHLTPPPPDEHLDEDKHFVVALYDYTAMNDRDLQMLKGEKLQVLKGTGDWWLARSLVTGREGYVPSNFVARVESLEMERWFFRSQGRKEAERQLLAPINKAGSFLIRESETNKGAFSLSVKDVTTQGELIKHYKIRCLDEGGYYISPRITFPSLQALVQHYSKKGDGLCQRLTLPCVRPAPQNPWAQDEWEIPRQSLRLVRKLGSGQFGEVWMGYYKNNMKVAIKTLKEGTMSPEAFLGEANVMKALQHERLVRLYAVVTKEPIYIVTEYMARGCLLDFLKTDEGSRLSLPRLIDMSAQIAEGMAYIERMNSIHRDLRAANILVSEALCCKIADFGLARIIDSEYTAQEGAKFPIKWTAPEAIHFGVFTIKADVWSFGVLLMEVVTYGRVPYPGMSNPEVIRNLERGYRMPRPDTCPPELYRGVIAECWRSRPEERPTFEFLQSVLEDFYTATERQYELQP

[16] = molecular target: Proto-oncogene tyrosine-protein kinase Src (Homo sapiens, UniProt P12931); experiment: Inhibition of SRC (unknown origin)
[17] = molecular target: Tyrosine-protein kinase Lyn (Homo sapiens, UniProt P07948); experiment: Inhibition of LYN (unknown origin)
[18] = molecular target: Tyrosine-protein kinase Lck (Homo sapiens, UniProt P06239); experiment: Inhibition of LCK (unknown origin)
[19] = test system: Ramos; experiment: Antiproliferative activity against human Ramos cells assessed as reduction in cell viability incubated for 72 hrs by celltiter-glo assay
[20] = test system: MOLM-13; experiment: Antiproliferative activity against human MOLM-13 cells assessed as reduction in cell viability incubated for 72 hrs by celltiter-glo assay; conditions: MOLM-13, 72 h
[21] = test system: TMD8; experiment: Antiproliferative activity against human TMD8 cells assessed as reduction in cell viability incubated for 72 hrs by celltiter-glo assay; conditions: TMD8, 72 h
[22] = test system: Raji; experiment: Antiproliferative activity against human Raji cells assessed as reduction in cell viability incubated for 72 hrs by celltiter-glo assay
[23] = test system: SU-DHL-2; experiment: Antiproliferative activity against human SUDHL2 cells assessed as reduction in cell viability incubated for 72 hrs by celltiter-glo assay; conditions: SU-DHL-2, 72 h
[24] = test system: Pfeiffer; experiment: Antiproliferative activity against human Pfeiffer cells assessed as reduction in cell viability incubated for 72 hrs by celltiter-glo assay
[25] = test system: TMD8; experiment: Induction of cell cycle arrest in human TMD8 cells assessed as accumulation of cells at S phase at 3 nM incubated for 48 hrs by PI staining based flow cytometric analysis (reference value: 37.42 %); format: functional
[26] = test system: TMD8; experiment: Induction of cell cycle arrest in human TMD8 cells assessed as accumulation of cells at G2 phase at 3 nM incubated for 48 hrs by PI staining based flow cytometric analysis (reference value: 4.92 %); format: functional
[27] = test system: TMD8; experiment: Induction of cell cycle arrest in human TMD8 cells assessed as accumulation of cells at S phase at 30 nM incubated for 48 hrs by PI staining based flow cytometric analysis (reference value: 37.42 %); format: functional
[28] = test system: TMD8; experiment: Induction of cell cycle arrest in human TMD8 cells assessed as accumulation of cells at G2 phase at 30 nM incubated for 48 hrs by PI staining based flow cytometric analysis (reference value: 4.92 %); format: functional
[29] = test system: TMD8; experiment: Induction of cell cycle arrest in human TMD8 cells assessed as accumulation of cells at G2 phase at 300 nM incubated for 48 hrs by PI staining based flow cytometric analysis (reference value: 4.92 %); format: functional
[30] = test system: TMD8; experiment: Induction of apoptosis in human TMD8 cells at 30 nM incubated for 72 hrs by Annexin V-FITC/PI staining based flow cytometric analysis (reference value: 13.4 %); format: functional
[31] = AUC(0 to 8 hrs) in CB-17 SCID mouse xenografted with human TMD8 cells at 7.5 mg/kg, po bid administered for 21 days; format: ADME, organism-based; parameters: route oral, time 21 day, dose 7.5 mg/kg; conditions: in vivo
[32] = Toxicity in CB-17 SCID mouse xenografted with human TMD8 cells assessed as change in body weight at 3.75 to 15 mg/kg, po bid administered for 21 days; format: organism-based; conditions: in vivo, 504 h, dose 3.75-15 mg/kg, time 21 day

Chain of Cytochrome P450 2C19 (P33261 whole entry): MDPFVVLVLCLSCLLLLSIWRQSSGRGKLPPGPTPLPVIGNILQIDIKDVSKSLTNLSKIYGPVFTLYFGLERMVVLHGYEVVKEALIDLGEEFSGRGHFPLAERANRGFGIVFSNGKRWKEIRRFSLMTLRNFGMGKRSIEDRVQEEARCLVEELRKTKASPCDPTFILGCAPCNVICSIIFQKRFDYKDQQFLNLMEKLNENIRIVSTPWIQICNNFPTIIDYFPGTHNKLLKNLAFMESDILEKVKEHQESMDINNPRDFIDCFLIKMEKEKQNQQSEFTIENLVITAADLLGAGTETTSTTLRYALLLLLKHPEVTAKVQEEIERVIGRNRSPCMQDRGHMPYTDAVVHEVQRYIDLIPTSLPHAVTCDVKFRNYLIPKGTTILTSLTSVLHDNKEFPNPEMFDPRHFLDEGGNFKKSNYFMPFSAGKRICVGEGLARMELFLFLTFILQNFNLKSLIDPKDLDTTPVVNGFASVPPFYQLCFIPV
Chain of Tyrosine-protein kinase Lyn (P07948 whole entry): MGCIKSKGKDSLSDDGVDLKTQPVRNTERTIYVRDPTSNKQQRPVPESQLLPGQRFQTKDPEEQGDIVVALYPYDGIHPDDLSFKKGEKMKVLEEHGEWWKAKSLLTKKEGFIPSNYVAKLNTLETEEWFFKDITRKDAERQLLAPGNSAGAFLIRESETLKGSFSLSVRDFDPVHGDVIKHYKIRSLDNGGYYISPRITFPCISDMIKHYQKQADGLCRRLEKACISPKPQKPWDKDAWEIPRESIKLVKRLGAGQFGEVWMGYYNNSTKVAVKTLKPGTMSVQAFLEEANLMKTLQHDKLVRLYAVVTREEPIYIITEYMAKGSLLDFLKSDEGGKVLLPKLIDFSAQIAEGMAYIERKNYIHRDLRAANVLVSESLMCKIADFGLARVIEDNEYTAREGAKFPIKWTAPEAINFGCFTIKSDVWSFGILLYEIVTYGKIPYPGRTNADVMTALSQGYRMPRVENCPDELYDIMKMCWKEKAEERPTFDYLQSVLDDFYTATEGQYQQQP
Chain of Proto-oncogene tyrosine-protein kinase Src (P12931 2-536 limits assumed): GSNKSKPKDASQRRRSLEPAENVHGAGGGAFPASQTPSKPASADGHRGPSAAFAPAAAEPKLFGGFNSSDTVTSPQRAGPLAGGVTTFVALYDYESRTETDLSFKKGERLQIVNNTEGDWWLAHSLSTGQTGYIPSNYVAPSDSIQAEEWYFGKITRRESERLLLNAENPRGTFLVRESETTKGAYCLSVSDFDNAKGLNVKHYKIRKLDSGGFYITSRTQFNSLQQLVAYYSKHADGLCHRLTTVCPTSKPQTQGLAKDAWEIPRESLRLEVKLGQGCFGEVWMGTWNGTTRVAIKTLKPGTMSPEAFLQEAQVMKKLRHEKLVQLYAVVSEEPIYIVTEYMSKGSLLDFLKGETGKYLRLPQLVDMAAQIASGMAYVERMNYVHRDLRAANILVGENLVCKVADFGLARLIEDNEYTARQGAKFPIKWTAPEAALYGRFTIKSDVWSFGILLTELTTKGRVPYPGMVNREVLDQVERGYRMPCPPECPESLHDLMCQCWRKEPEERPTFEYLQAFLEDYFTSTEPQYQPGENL
Chain of Cytochrome P450 3A4 (P08684 whole entry): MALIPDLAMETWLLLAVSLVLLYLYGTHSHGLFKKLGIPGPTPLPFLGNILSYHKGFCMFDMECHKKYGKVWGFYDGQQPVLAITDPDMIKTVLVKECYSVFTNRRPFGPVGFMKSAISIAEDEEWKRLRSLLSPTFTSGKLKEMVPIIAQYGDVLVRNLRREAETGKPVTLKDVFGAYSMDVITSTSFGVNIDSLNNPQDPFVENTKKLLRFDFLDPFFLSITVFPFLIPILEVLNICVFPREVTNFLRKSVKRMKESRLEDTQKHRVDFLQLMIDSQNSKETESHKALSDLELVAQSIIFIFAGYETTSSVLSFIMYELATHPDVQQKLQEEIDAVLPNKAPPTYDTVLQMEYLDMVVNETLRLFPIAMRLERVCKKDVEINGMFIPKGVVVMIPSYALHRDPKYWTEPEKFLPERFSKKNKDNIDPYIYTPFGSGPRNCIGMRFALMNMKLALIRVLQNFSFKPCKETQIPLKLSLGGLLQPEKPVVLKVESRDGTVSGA
Chain of Cytochrome P450 2D6 (P10635 whole entry): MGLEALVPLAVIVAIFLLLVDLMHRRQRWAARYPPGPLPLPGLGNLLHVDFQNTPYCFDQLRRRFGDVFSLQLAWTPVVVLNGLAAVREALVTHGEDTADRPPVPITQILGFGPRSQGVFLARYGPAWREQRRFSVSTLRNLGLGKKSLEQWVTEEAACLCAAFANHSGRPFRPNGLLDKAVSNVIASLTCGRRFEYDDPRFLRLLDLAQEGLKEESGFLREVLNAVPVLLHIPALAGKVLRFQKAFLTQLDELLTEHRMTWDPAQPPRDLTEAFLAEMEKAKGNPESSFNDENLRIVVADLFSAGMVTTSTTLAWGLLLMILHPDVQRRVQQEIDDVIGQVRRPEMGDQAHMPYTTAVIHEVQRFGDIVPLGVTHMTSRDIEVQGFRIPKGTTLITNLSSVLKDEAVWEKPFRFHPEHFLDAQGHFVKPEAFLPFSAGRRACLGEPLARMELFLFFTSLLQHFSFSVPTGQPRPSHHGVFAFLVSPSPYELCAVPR
Chain of Tyrosine-protein kinase Lck (P06239 whole entry): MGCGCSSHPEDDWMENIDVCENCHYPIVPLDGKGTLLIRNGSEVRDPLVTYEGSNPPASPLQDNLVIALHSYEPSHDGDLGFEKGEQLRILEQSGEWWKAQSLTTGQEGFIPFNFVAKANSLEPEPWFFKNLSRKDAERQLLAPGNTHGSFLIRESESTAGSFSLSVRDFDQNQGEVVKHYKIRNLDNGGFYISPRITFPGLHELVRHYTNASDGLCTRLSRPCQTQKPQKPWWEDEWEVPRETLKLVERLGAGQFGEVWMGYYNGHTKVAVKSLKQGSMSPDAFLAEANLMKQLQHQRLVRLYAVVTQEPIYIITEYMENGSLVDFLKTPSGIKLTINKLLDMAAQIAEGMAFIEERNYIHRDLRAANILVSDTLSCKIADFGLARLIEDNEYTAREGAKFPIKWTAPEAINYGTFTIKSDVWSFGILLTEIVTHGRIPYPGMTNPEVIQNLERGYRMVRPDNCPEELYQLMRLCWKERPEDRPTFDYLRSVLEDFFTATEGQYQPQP

Q: With `C=CC(=O)N1CCCC[C@H]1c1nc(-c2ccc(C(=O)Nc3cc(C(F)(F)F)ccn3)cc2)c(C(N)=O)n1N` as the compound, how does the IC50 [1] read?
A: Its IC50 is greater than 10000 nM.

Q: And the IC50 [2]?
A: The IC50 was greater than 10000 nM.

Q: And the IC50 [3]?
A: Its IC50 is greater than 10000 nM.

Q: And the Cmax [4]?
A: Its Cmax is 2380 nM.

Q: And the Occ [5]?
A: The Occ was 91%.

Q: What about the Occ [6] of the same compound?
A: Its Occ is 58%.

Q: What about the Occ [7] of the same compound?
A: The Occ was 95%.

Q: And the Occ [8]?
A: Its Occ is 95%.

Q: What about the Activity [9] of the same compound?
A: The Activity was “Non-Toxic”.

Q: And the bioavailability [10]?
A: Its bioavailability is 31.4%.

Q: What about the AUC at 24 h [11] of the same compound?
A: Its AUC at 24 h is 2000 ng·h/mL.

Q: What about the AUC at 24 h [12] of the same compound?
A: Its AUC at 24 h is 6360 ng·h/mL.

Q: What about the IC50 [13] of the same compound?
A: Its IC50 is 847 nM.

Q: And the inhibition [14]?
A: The inhibition was greater than 80%.

Q: What about the IC50 [15] of the same compound?
A: The IC50 was 170 nM.

Q: What about the “inhibition (INH)” value [16] of the same compound?
A: The value was “Not Active”.

Q: What about the “inhibition (INH)” value [17] of the same compound?
A: Its value is “Not Active”.

Q: And the “inhibition (INH)” value [18]?
A: The value was “Not Active”.

Q: And the IC50 [19]?
A: Its IC50 is 2500 nM.

Q: And the IC50 [20]?
A: The IC50 was 3700 nM.

Q: And the IC50 [21]?
A: The IC50 was 25 nM.

Q: What about the IC50 [22] of the same compound?
A: Its IC50 is 4300 nM.

Q: And the IC50 [23]?
A: Its IC50 is 5500 nM.

Q: And the IC50 [24]?
A: Its IC50 is 2500 nM.

Q: What about the Activity [25] of the same compound?
A: The Activity was 37.86%.

Q: And the Activity [26]?
A: Its Activity is 7.94%.

Q: And the Activity [27]?
A: The Activity was 10.95%.

Q: What about the Activity [28] of the same compound?
A: The Activity was 4.69%.

Q: What about the Activity [29] of the same compound?
A: Its Activity is 3.79%.

Q: What about the Activity [30] of the same compound?
A: The Activity was 19.2%.

Q: What about the AUC at 504 h [31] of the same compound?
A: Its AUC at 504 h is 1780 ng·h/mL.

Q: And the Activity [32]?
A: Its Activity is “Non-Toxic”.
